Data taken from PMC11583597, “Brain uptake pharmacokinetics of albiglutide, dulaglutide, tirzepatide, and DA5-CH in the search for new treatments of Alzheimer’s and Parkinson’s diseases” (Tissue Barriers, 2023).

What was measured:
[1] = In vivo stability of 125I/14C-IRAs in blood/serum (acid precipitation); parameters: species or system male CD-1 mice; conditions: mouse, iv
Experimental: We measured the stability of the radiolabeled IRAs in brain and blood. Following anesthetization, arterial blood and whole brain were taken at two time points (10 or 60 min) after iv injection of 3 × 10^5 cpm-1×10^6 cpm of ^125I/^14C-IRA in 0.2 ml of BSA/LR. The blood samples were allowed to clot, centrifuged at 3200 ×g for 10 min, and 50 μl of the separated serum was added to 250 μl of BSA-LR. Samples were combined with equal volume 30% TCA (300 μl), mixed, and then centrifuged for 10 min at 5400 ×g. Brains were homogenized in 800 μl of BSA-LR with a bead beater for 30 sec at 4800 rpm twice. Following centrifugation at 5400 ×g for 15 min, a portion of the resulting supernatant was added to an equal volume of 30% TCA, mixed, and then centrifuged at 5400 ×g for 10 min. The radioactivity in the resulting supernatant and pellet (Sup and Pel fractions) for serum and brain was calculated separately, and the percent of radioactivity in the precipitate was calculated using the following equation:(1) %AcidPrecip=100×Pel/Sup+Pel
To correct for degradation that might have occurred during the processing, ^125I/^14C-IRA was added to non-radioactive arterial whole blood or to whole brain and processed as above. The biological samples were corrected for degradation during processing by dividing their values by those for processing control (Pcon) values and multiplying by 100. This can sometimes result in a value greater than 100%.
Immediately after counting the radioactivity, the blood and brains from the 10 min and 6 h time points were processed as described in Section 2.5 for in vivo stability. For further comparison, data from the 1 h time point were taken from the original pharmacokinetic uptake study. The ^125I-IRA brain % acid precipitation (%AP) was divided by the ^125I-IRA serum %AP at each time point to calculate the %AP B/S ratio. This value was multiplied by the B/S ratio for each ^125I-IRA to correct for degradation over the 10 min, 1 h, or 6 h time periods. Corrected AP B/S ratios were then corrected for vascular space by subtracting the ^99mTc-Alb B/S ratio within each mouse for the 10 min and 6 h time points (AP corrected delta B/S ratio). For the 1 h time point, the average ^99mTc-Alb B/S ratio (10.03 μl/g) at 10 min across all ^125I-IRAs was used for correction. The AP corrected delta B/S ratio for each ^125I-IRA was then multiplied by the %Inj/ml within each mouse to calculate the AP corrected delta %Inj/g.

[2] = Long-term (6 h) measurement of brain uptake; assay type: in vivo, male CD-1 mice; conditions: mouse, in vivo, iv
Experimental: Substances that are enzymatically stable in blood and have slow clearance from the circulation can slowly enter the brain using the extracellular pathways.[63],[64] […] Albumin enters the brain by extracellular pathways,[70] and so we used albumin in two ways: we used ^99mTc-Alb circulating for 10 min to measure vascular space and ^99mTc-Alb circulating for 6 h to measure brain uptake by extracellular pathways. This is similar to the time-differential methodology developed by Poduslo and Curran to measure a substance’s vascular space and its uptake rate.[71] Following anesthetization, the jugular vein and right carotid artery were exposed. Mice were given an iv injection of 0.1% BSA-LR containing 1 × 10^6 cpm of ^125I-IRA or 5 × 10^5 cpm of ^99mTc-Alb, which circulated for 6 h. Mice receiving only the ^125I-IRA were given an injection of 5 × 10^5 cpm of ^99mTc-Alb 10 min prior to the end of the 6 h circulation time to act as a vascular marker. A separate set of mice received an iv injection of both 1 × 10^6 cpm of ^125I-IRA and 5 × 10^5 cpm of ^99mTc-Alb that circulated for 10 min. Following the 10 min or 6 h circulation time points, blood and brain were collected as described above. Thus, we had B/S ratios for ^99mTc-Alb measuring vascular space (10 min circulation time) and B/S ratios for ^99mTc-Alb measuring vascular space plus uptake by the extracellular pathways (6 h circulation time) which could be compared to the B/S ratios for the ^125I-IRAs after 10 min and 6 h of circulation.
Immediately after counting the radioactivity, the blood and brains from the 10 min and 6 h time points were processed as described in Section 2.5 for in vivo stability. For further comparison, data from the 1 h time point were taken from the original pharmacokinetic uptake study. The ^125I-IRA brain % acid precipitation (%AP) was divided by the ^125I-IRA serum %AP at each time point to calculate the %AP B/S ratio. This value was multiplied by the B/S ratio for each ^125I-IRA to correct for degradation over the 10 min, 1 h, or 6 h time periods. […]

CC[C@H](C)[C@H](NC(=O)[C@H](CC(C)C)NC(=O)[C@H](Cc1c[nH]c2ccccc12)NC(=O)[C@H](CCC(N)=O)NC(=O)[C@@H](NC(=O)[C@H](Cc1ccccc1)NC(=O)[C@H](C)NC(=O)[C@H](CCCCNC(=O)COCCOCCNC(=O)COCCOCCNC(=O)CC[C@H](NC(=O)CCCCCCCCCCCCCCCCCCC(=O)O)C(=O)O)NC(=O)[C@H](CCC(N)=O)NC(=O)[C@H](C)NC(=O)[C@@H](NC(=O)[C@H](CCCCN)NC(=O)[C@H](CC(=O)O)NC(=O)[C@H](CC(C)C)NC(=O)C(C)(C)NC(=O)[C@@H](NC(=O)[C@H](CO)NC(=O)[C@H](Cc1ccc(O)cc1)NC(=O)[C@H](CC(=O)O)NC(=O)[C@H](CO)NC(=O)[C@@H](NC(=O)[C@H](Cc1ccccc1)NC(=O)[C@@H](NC(=O)CNC(=O)[C@H](CCC(=O)O)NC(=O)C(C)(C)NC(=O)[C@@H](N)Cc1ccc(O)cc1)[C@@H](C)O)[C@@H](C)O)[C@@H](C)CC)[C@@H](C)CC)C(C)C)C(=O)N[C@@H](C)C(=O)NCC(=O)NCC(=O)N1CCC[C@H]1C(=O)N[C@@H](CO)C(=O)N[C@@H](CO)C(=O)NCC(=O)N[C@@H](C)C(=O)N1CCC[C@H]1C(=O)N1CCC[C@H]1C(=O)N1CCC[C@H]1C(=O)N[C@@H](CO)C(N)=O [Tirzepatide]
Percentage of labeled IRA intact, Serum, 10 min [1]: 100.5 ± 0.0%
Percentage of labeled IRA intact, Serum, 60 min [1]: 99.65 ± 0.1%
Amount present in brain at 6 h (AP corrected delta %Inj/g) [2]: 0.005 %Inj/g
